The source of these data is patent US11291663B2, “Methods of treating cancer with farnesyltransferase inhibitors” (Kura Oncology, Inc., priority 2017, dated 2022).

What all share (assay type): in vivo, human
The subject of data set [1] is relapsed/refractory AML. The experiment in a line: Study AMLCG 1999, AraC based chemotherapy by CXCR4/CXCR2 expression ratio. Conditions: relapsed/refractory AML subjects. The source says:
FIG. 11B. Progression free survival (PFS) probabilities over time (days) for relapsed/refractory AML subjects in study AMLCG 1999 receiving AraC based chemotherapy with relative CXCR4/CXCR2 expression ratios.

For data set [2], the system named is elderly patients with newly diagnosed, de novo, or secondary AML. The experiment in a line: Ph3 study AML301, tipifarnib versus BSC. As to the method:
(§1) Clinical studies with tipifarnib were performed in newly diagnosed elderly patients with poor risk AML (CTEP-20, Phase 2) and relapsed and refractory AML (INT-17, Phase 2). Patient selection in these studies was not based on genetic markers. Anecdotal evidence of tipifarnib single agent activity was reported. […] Median OS in the overall study was 107 days for the Tipifarnib group and 109 days for the BSC group in AML301.
AML patients with low percentage of circulating blood blasts (<1 and <10%) and high percentage of bone marrow blasts (>40%) receive clinical benefit from tipifarnib treatment in terms of progression free survival (PFS, CTEP20) or survival (AML301). […] AML301 patients N=82 (18% of study size), HR=0.58, 109 (BSC) vs 201 (tipifarnib) days, P=0.019.
FIGS. 3A-H show results from a clinical tipifarnib trial for subsets of elderly or frail AML patients (AML-301) with varying degrees of neutropenia. […] FIGS. 3B-3F show survival probabilities in AML patient subsets with WBCs>2.1×10^9 cells/L and ANC<1.2×10^9 cells/L (FIG. 3B), ANC<1.0 (FIG. 3C), ANC<0.8 (FIG. 3D), ANC<0.6 (FIG. 3E) and ANC<0.4 (FIG. 3F).

Data set [3] deals with newly diagnosed elderly patients with poor risk AML. The experiment in a line: Phase 2 study CTEP-20 of tipifarnib. How it is done:
as §1
FIG. 7. (A) PFS probabilities of previously untreated elderly or unfit AML subjects with a high CXCR4/CXCR2 ratio versus the rest of the patients enrolled in study CTEP-20. Outcome and expression data are available for 34 study subjects. Median survival of subjects with a bone marrow CXCR4/CXCR2 expression ratio in the upper quartile was 406 days versus 67 days in quartiles 1st-3rd, HR=0.44, p=0.09. Median overall PFS was 84 days. (B) Survival probabilities of previously untreated elderly or unfit AML subjects with a high CXCR4/CXCR2 ratio versus the rest of the patients in study CTEP-20. Median survival of subjects with a bone marrow CXCR4/CXCR2 expression ratio in the upper quartile was 728 days versus 179 days in quartiles 1st-3rd, HR=0.26, p=0.07. Median overall survival was 233 days.

Data set [4] has as its system relapsed and refractory AML. The experiment in a line: Phase 2 study INT-17 of tipifarnib. How it is done: as §1
FIGS. 6A and 6B show graphs illustrating results from a tipifarnib trial with relapsed or refractory AML subjects (INT-17 R/R AML). […] The bone marrow of refractory AML subjects was generally found to express low levels of CXCL12. A small subset of subjects (˜15%) presented high levels of CXCR4, bone marrow homing of tumor cells and sensitivity to tipifarnib. FIG. 6A illustrates relative counts of blood blasts in relapsed or refractory AML patients stratified based on CXCR4 expression levels. […] FIG. 6B illustrates PFS probabilities for relapsed or refractory AML subjects stratified based on CXCR4 expression levels. AML subjects overexpressing CXCR4 (N=8; median PFS=143 days) had better clinical outcomes than AML subjects with relatively lower levels of CXCR4 expression (N=49; median PFS=29 days).
CXCR4/CXCR2 ratio data were available for 57 subjects who experienced an overall survival of 87 days. […]

Data set [5] deals with relapsed/refractory PTCL. The experiment in a line: Tipifarnib in relapsed/refractory PTCL patients with available GEP. Conditions: of 13 highly advanced relapsed/refractory PTCL patients with available GEP. The source says: (§2) CXCL12 expression alone or as a ratio of the expression to its receptor CXCR4 predicted complete response to tipifarnib treatment (p=0.08, p=0.001) (FIG. 20A). CXCL12 and the CXCL12/CXCR4 ratio also were predictive of 2 partial responses (PR) observed in 13 highly advanced relapsed/refractory PTCL patients with available GEP (p=0.009, p=0.0007) (FIG. 20B). Four objective responses and 1 tumor lysis syndrome were reported in 17 tipifarnib-treated CMML subjects with available pre-treatment BM gene expression data (FIG. 20C). CXCL12 expression (p=0.07) and the CXCL12/CXCR4 ratio (p=0.03) were predictive of those events (FIG. 20C). Only 3 CRs were reported in 58 patients with available BM gene expression data in study INT-17.

The subject of data set [6] is relapsed/refractory CMML. The data set is described as follows: Tipifarnib-treated CMML subjects (study TIP-004). Conditions: of 17 CMML subjects with available pre-treatment BM gene expression data.
From the text: FIG. 10B. Progression free survival (PFS) probabilities over time (days) for relapsed/refractory CMML subjects in study TIP-004 receiving tipifarnib with relative CXCR4/CXCR2 expression ratios. CMML patients having higher CXCR4/CXCR2 expression ratios responded better to tipifarnib treatment than those having lower CXCR4/CXCR2 expression ratios.
as §2

SMILES strings stand for the structures.

Regarding `Nc1ccn([C@@H]2O[C@H](CO)[C@@H](O)[C@@H]2O)c(=O)n1` [AraC], the “PFS response of patients with higher versus lower CXCR4/CXCR2 expression ratios” value in data set [1] is given as “no differently”.

In the case of `Cn1cncc1[C@@](N)(c1ccc(Cl)cc1)c1ccc2c(c1)c(-c1cccc(Cl)c1)cc(=O)n2C` [tipifarnib], the “hazard ratio, tipifarnib versus reference therapy” value in data set [2] (ANC/WBC<0.3 and marrow blasts >60%, N=110, P=0.08) worked out at 0.67. Moreover, the “hazard ratio, tipifarnib versus BSC” value in data set [2] (ANC/WBC<0.4, WBC>2, platelets >20, N=135, P=0.046) was 0.7. The “survival probability versus Best Supportive Care” value in data set [2] (no marrow homing subset) is “no effect”. Besides, the “HR, tipifarnib versus BSC” value in data set [2] (subset with bone marrow blasts >40% and peripheral blood blasts <10%, N=82, P=0.019) was determined as 0.58. In addition, the “Median survival (PFS panel A)” value in data set [3] (CXCR4/CXCR2 expression ratio quartiles 1st-3rd) is 67 days. In addition, in data set [3] (of 34 pts with available BM gene expression data), the “best responses of progression of disease (PD), number of patients” value is recorded as 13. The “HR for survival, upper quartile versus quartiles 1st-3rd of CXCR4/CXCR2 ratio” value in data set [3] (p=0.07) is listed as 0.26. Besides, the “HR for PFS, upper quartile versus quartiles 1st-3rd of CXCR4/CXCR2 ratio” value in data set [3] (p=0.09) stood at 0.44. Further, in data set [4] (of 58 patients with available BM gene expression data), the “CRs, number of patients” value came to 3. Further, in data set [4] (p=0.04), the “HR, 5th quintile of CXCR4/CXCR2 ratio versus rest of the subjects” value amounted to 0.52. Besides, the “partial responses (PR), number of patients” value in data set [5] is 2. Further, the “tumor lysis syndrome, number of subjects” value in data set [6] is given as 1.
